Like-named read-outs stand apart in the source and are kept apart here.

The values that follow come from PMC12323867 (RSC Medicinal Chemistry, 2025).

Assay [1] concerns LSD1. Also on record: method as in PMID 38742921. Conditions: cited from earlier work.
A further assay relates to H3K4me2 levels in cells. Also on record: method as in PMID 38742921. Conditions: cited from earlier work.
In assay [2] the test system is LSD1. Particulars: cited from earlier work.
Assay [3] addresses T1, LSD1-HDAC1-CoREST complex (Homo sapiens, UniProt O60341).
T1 construct: full length native LSD1 (UniProt ID: O60341); made in house; host or cells: HEK 293F cells (co-transfection, pcDNA3 vectors)
Kind of assay: LSD1 HRP-coupled demethylase assay, SP2509/SP2577 analogues. Type of assay: biochemical. Particulars: LSD1 enzymatic activity, complex 50 nM, HRP assay; read-out: LSD1-HDAC1-CoREST IC50. How it is done:
The analogues synthesised were then tested for their ability to inhibit LSD1 using purified LSD1-HDAC1-CoREST complex (Fig. 2B). We used an established fluorescent read out horseradish peroxidase (HRP) assay to monitor LSD1 enzymatic activity in the CoREST complex[8] (see ESI ^† for full details).
2. Supplementary Information: Biology
2.1. LSD-HDAC1-CoREST expression and purification
Lysis Buffer (Buffer A) Wash Buffer (Buffer B)
• 50 mM Tris/Cl pH 7.5 • 50 mM Tris/Cl pH 7.5
• 50 mM Potassium Acetate • 50 mM Potassium Acetate […]
Cleavage Buffer (Buffer C) Gel Filtration Buffer (Buffer D)
• 50 mM Tris/Cl pH 7.5 Filtered at vacuum.
• 50 mM Potassium Acetate • 50 mM Tris/Cl pH 7.5
• 5 % v/v Glycerol • 50 mM Potassium Acetate
• 0.5 mM tris(2- • 0.5 mM TCEP carboxyethyl)phosphine (TCEP)
The CoREST ternary complex was comprised of full length native LSD1 (UniProt ID: O60341), full length HDAC1 (UniProt ID: Q13547) and N-terminally truncated RCOR1 (86-485aa) (UniProt ID:
Q9UKL0). Protein constructs were cloned into pcDNA3 vector. The RCOR1 constructs contained an N-terminal (His)10(Flag)3 tag followed by a Tev protease cleavage site. The constructs for ternary complex were co-transfected into suspension-grow HEK 293F cells (Thermofisher Scientific) with polyethylenimine (PEI) (Sigma) and harvested after 48 hours. This section of the procedure was carried out as described previously in literature.11,12
Cell pellets from 1.2 L culture were defrosted, and buffer A (30 mL) was added. The solution was sonicated (Soniprep 150) in an beaker of ice using a 9 mm probe at 10 ampules; operated with 10 […]
2.2. SP2509/SP2577 analogues LSD1 HRP-coupled demethylase assay protocol The commercial reagents for the assay were HRP and Amplex® Ultrared, which are available to purchase from ThermoFisher (31490) and Invitrogen (10737474), respectively. HRP was made up to 8 mg/mL stock solution in 1xPBS buffer, divided into 10 µL aliquots, snap-frozen in liquid nitrogen and stored at -80 °C. Amplex® Ultrared was made up to 10 mM solution in DMSO, divided into 20 µL aliquots and wrapped in foil, away from light and stored at -20 °C. For each assay experiment, CoREST complex was diluted to 500 nM in assay buffer (20 mM HEPES pH 7.5 and 50 mM NaCl).
HRP was defrosted by diluting each aliquot in 90 µL 1xPBS solution, making a 0.8 mg/mL solution.
Amplex® Ultrared was made up to 200 µM in assay buffer. HRP and Amplex® Ultrared were pre-mixed before addition to the plate. H3K4Me2 substrate (4 mM in deionised water) was diluted to 300 µM in assay buffer. All stocks were stored on ice during assay preparation.
The assay was carried out using a ‘black well’ 96 well plate (Corning no. 3915) in a reaction volume of 100 μL. The final concentrations in the assay were as follows: 50 nM CoREST complex, 10 μM Amplex® UltraRed, 0.04 mg/mL HRP and 15 μM H3K4Me2 peptide substrate. The final DMSO concentration in each well was 1.1 %. Three wells of each experiments were designated ‘background controls’ and contained 85 μL assay buffer, premixed Amplex® UltraRed and HRP (10 µL) and H3K4Me peptide substrate (300 μM, 5 µL).
A stock solution of inhibitor (1 -5 mM in DMSO) was subjected to an inhibitor dilution series, in Eppendorf tubes, in 100 % DMSO. Each new inhibitor stock (4 μL) was diluted in assay buffer (1 in 75) within a new Eppendorf set with assay buffer (20 mM HEPES pH 7.5 and 50 m M NaCl), ensuring the percentage of DMSO was consistent throughout the series. To each well of interest, Inhibitor in assay buffer (75 μL) was added, and CoREST complex (500 nM, 10 µL) was added thereafter. The plate was placed on a rocker and pre -incubated for 30 mins. To each well, premixed Amplex® UltraRed and HRP (10 µL) was added before H3K4Me 2 peptide substrate in assay buffer solution (300 μM, 5 µL) was added to the wall of the plate. The plate was covered in foil and spun down for one minute before being placed in the plate reader. The final percentage concentration of DMSO in […]

Usually IC50 stands for the concentration that inhibits the measured activity by half. Consider `C/C(=N\NC(=O)c1cccc(S(=O)(=O)N2CCN(C)CC2)c1)c1cc(Cl)ccc1O` [SP2577], for which, in the assay with LSD1 [1], the “ability to increase H3K4me2 on peptides and nucleosomes” value is “no effect”. For the same compound, the “H3K4me2 levels in cells” value in the assay on H3K4me2 levels in cells is “failed to increase H3K4me2 levels”. The IC50 is 1.33 µM with LSD1 [2] (read-out: LSD1 IC50), 0.127 µM in the assay with LSD1 [2] (read-out: LSD1 mean IC50) and 0.306 µM in assay [3].
